Data reported in patent publication US8614333B2, “Acenaphtho heterocyclic compound and application thereof” (Dalian University of Technology, priority 2010, dated 2013).

Columns and labels:
Bcl-2 protein = Bcl-2 protein (Homo sapiens, UniProt P10415); experiment: ELISA assay, competitive binding to Bcl-2 protein (biotin-Bim/streptavidin plate); conditions: method calculates average IC50, read-out: Bcl-2 binding constants
Protocol: (§1) The present inventors used fluorescence polarization assay to detect the bonding force between the protein and the compounds in a previous study (PCT/CN2010/075521). […] ELISA assay was used to detect the bonding force between the compounds and the protein in this application.
(§2) Biotinylated Bim peptide was diluted to 0.09 μg/mL in SuperBlock blocking buffer in PBS and incubated for 1.5 h in 96-well microtiter plates already coated with streptavidin to allow the formation of the complex between Biotin-Bim and streptavidin. All incubations were performed at room temperature unless otherwise noted. Each inhibitor was first dissolved in pure DMSO to obtain a 10 mM stock solution. For each tested inhibitor, different concentrations of the inhibitor were incubated with 20 nM His-tagged Mcl-1 protein in PBS for 1 h with a final DMSO concentration of 4%. The plates were washed three times with PBS containing 0.05% Tween-20. The inhibitor and protein mixture (100 μL) were transferred to the plate containing the biotin-Bim/streptavidin complex and incubated for 2 h. The plate was then washed as before and mouse anti-His antibody that conjugated with horseradish peroxidase was added into the wells and incubated for 1 h. The plate was then washed with PBS containing 0.05% Tween-20. Finally, TMB was added to each well; the enzymatic reaction was stopped after 30 min by addition of H2SO4 (100 μL, 2M). Absorbances were measured with a TECAN GENios (Swiss, TECAN) microplate reader using a wavelength of 450 nm. Three independent experiments were performed with each inhibitor to calculate average IC50 value and standard deviation (SD).
(§3) The BH3 analogous degrees of other 11 compounds were detected by using the experimental method as described above. The protein binding constant (binding constant in table 1) between them and Bcl-2 and Mcl-1 proteins were also on nM grade.

His-tagged Mcl-1 protein = His-tagged Mcl-1 protein (Homo sapiens, UniProt Q07820); experiment: ELISA assay, competitive binding to Mcl-1 protein (biotin-Bim/streptavidin plate); conditions: 20 nM His-tagged Mcl-1, method calculates average IC50, read-out: Mcl-1 binding constants
Protocol: as §1, §2, §3

[1] = biological target: T1, interaction between Bcl-2 and Bax (Homo sapiens, UniProt P10415); experiment: Intracellular FRET, Bcl-2-CFP/Bax-YFP in Hela cells; type: cell-based; conditions: for Time (time period after which the interaction between Bcl-2 and Bax was interfered): at the concentration given
T1 construct: expressed in transfected cells; host or cells: Hela cells
Protocol: 2 μg of Bcl-2-CFP and Bax-YFP plasmids were transfected separately or simultaneously into Hela cells by using calcium phosphate coprecipitation method, 24 hours later, the cells were inoculated in a 6-well plate (2×10^5 cells/well), and the compound 1 to be detected dissolved in DMSO was added there into until the final concentration (2, 5, 10 and 15 μM) was achieved. 24 hours later (please refer to FIG. 5); the cells were washed with PBS for three times. The fluorescence value was detected by GENIOS fluorescence enzyme-labelled meter (TECAN, Swiss). In time-dependent experiment, the transfected cells were inoculated in a 6-well plate, after that, 40 μM of the compound was added thereinto. 3, 6 and 24 hours later (FIG. 6), the fluorescence intensities were detected by plate reader. As for the cell group in which only Bcl-2-CFP plasmid was transfected, the values at 475 nm emission wave length and 433 nm excitation wave length were recorded. As for the cell group in which only Bax-YFP plasmid was transfected, the values at 527 nm emission wave length and 505 nm excitation wave length were recorded. As for the cell group in which Bcl-2-CFP and Bax-YFP plasmids were co-transfected, the values at 527 nm and 475 emission wave lengths and 433 nm excitation wave length were recorded. The ratio of fluorescence intensity at 527 nm and 475 nm emission wave lengths was FRET. The FRET for the control group in which the plasmid was solely transfected was set as 1.0. […] In the cotransfected cells, the FRET increased up to 2.0 due to the interaction of Bcl-2 protein and Bax protein, and that the interference to the interaction between the two proteins increased and FRET decreased with the increase of the drug concentration and time. The cellular vitality was detected by MTT method. When the concentration of the compound reached 1 μM, the interaction between Bcl-2 and Bax can be interfered after 2 hours, and the results appeared concentration-time dependent trend.
Wherein the concentration and time meant that the detected compound interfered with the interaction between Bcl-2 and Bax at the concentration for the time period.

[2] = test system: BAX shift towards the chondriosome; experiment: Co-localization between Bax protein and chondriosome, Bax-YFP in MCF-7 cells; type: cell-based; conditions: for Doses (concentration at which the compound drove the BAX to shift towards the chondriosome): Bax-YFP/Mito Tracker Red; for Time (time period after which BAX shifted towards the chondriosome): at the concentration given
Protocol: 5 μg of Bax-YFP plasmid was transfected into MCF-7 cells by using calcium phosphate coprecipitation method, 24 hours later, the cells were inoculated in a 6-well plate (0.2×10^6 cells/well), and 10 μM of the compound 1 to be detected was added thereinto. 6 hours later, the cells were washed with PBS and hatched away from light with 50 nM Mito Tracker Red CMXRos (chondriosome specific probes; red) for 10 minutes. Then the cells were washed with PBS for three times, and the fluorescent image was scanned with Radiance2000 laser confocal microscopy (Bio-Rad, USA). Meanwhile, dual channel scanning was carried out, one channel was used to scan the green fluorescence of Bax-YFP, and the other channel was used to scan the red fluorescence of the CMXRos probe for indicating the chondriosome. […] When the Bax protein was localized on the chondriosome, the green and red fluorescence was superimposed into orange, as shown in FIG. 7.
Other 24 compounds were detected by the same experimental method as described above. […] Wherein the concentration and time meant that the detected compound simulated the BH3-only protein and driven the BAX to shift towards the chondriosome at the concentration for the time period.

MCF-7 cells = experiment: Cytotoxicity by MTT, cells without plasmid transfection; type: cell-based; conditions: Homo sapiens, MCF7; MCF-7, MTT, 48 hours; read-out: IC50 value in untransfected cells
Protocol: (§4) 3 μg of BAX/BAK interfering plasmid was transfected into MCF-7 cells by using calcium phosphate coprecipitation method, 24 hours later, the cells were collected. The expressions after the BAX and BAK proteins interfered with RNA was detected by Western, and the cell groups without plasmid transfection were treated similarly and were set as the control group. The transfected cells were inoculated in a 96-well plate (1×10^5 cells/well), the control experiment of the cell group without plasmid transfection was carried out in parallel. The compound 1 to be detected was added thereinto according to the concentration gradient designed before the experiment. 48 hours later, the cellular vitality was detected by MTT. The experimental results were shown in FIG. 9, Gossypol as nonspecific BH3 analogue was treated in parallel.
(§5) Other 24 compounds were also detected by the same experimental method as described above, the differences of IC50 values between the transfected cells and the without plasmid transfection cells were compared.

[3] = test system: MCF-7 cells transfected with BAX/BAK interfering plasmid; experiment: Cytotoxicity by MTT, cells transfected with BAX/BAK interfering plasmid; type: cell-based; conditions: Homo sapiens, MCF7; MCF-7 with BAX/BAK interfering plasmid, MTT, 48 hours
Protocol: as §4, §5

Bcl-2 = experiment: Western blotting, semiquantitative analysis of Bcl-2 protein bands; type: cell-based; conditions: control = 1, tumor cells
Protocol: (§6) The interest protein was detected by the corresponding antibody. The expression of the interest protein in the cells was detected by horseradish peroxidase-labeled secondary antibodies in combination with ECL coloration method. […] The concentration of the protein bands in the Western images were carried out semiquantitative analysis and normalization treatment with KODAK Gel Logic 1500 imaging system software.

Mcl-1 = experiment: Western blotting, semiquantitative analysis of Mcl-1 protein bands; type: cell-based; conditions: control = 1, tumor cells
Protocol: as §6

GST-Bcl-2 protein = GST-Bcl-2 protein (Homo sapiens, UniProt P10415); experiment: Fluorescence polarization assay, competition with FAM-Bid peptide for Bcl-2; conditions: GST-Bcl-2 40 nM, FAM-Bid 5 nM, 4 hours of incubation, read-out: Bcl-2 binding constants
Protocol: (§7) A Bid BH3 peptide (amino acids: 79-99: […]) having 21 amino acids was synthesized and marked with 6-carboxyfluorescein N-succinimidyl ester (FAM) as fluorescent tag (FAM-Bid) at the N-terminal. The reaction system used in the competitive binding experiment was GST-Bcl-2 protein (40 nM) or Mcl-1 protein, which was dissolved in the reaction buffer (100 mM K3PO4, pH 7.5; 100 μg/ml bovine γ albumin; 0.02% sodium azide) together with FAM-Bid polypeptide (5 nM). In a 96-well plate, 100 µL of the reaction system was added into each well. Then 1 μL different concentration of compound 13 mother solution to be detected dissolved in DMSO was added there into until the final concentration met the experimental design requirements. Meanwhile, two control groups were established, one with the reaction system only containing Bcl-2 or Mcl-1 and FAM-Bid (equivalent to 0% inhibition rate), the other with the reaction system only containing FAM-Bid peptide. After 4 hours of incubation, the 96-well plate was detected by enzyme-labelled meter. The fluorescent polarization value (mP) was tested at […]. Ki value was deduced according to calculation formula.
(§8) The BH3 analogous degrees of other 12 compounds were detected by using the experimental method as described above.

Mcl-1 protein = Mcl-1 protein (Homo sapiens, UniProt Q07820); experiment: Fluorescence polarization assay, competition with FAM-Bid peptide for Mcl-1; conditions: FAM-Bid 5 nM, 4 hours of incubation, read-out: Mcl-1 binding constants
Protocol: as §7, §8

Sequence of GST-Bcl-2 protein (P10415 whole entry): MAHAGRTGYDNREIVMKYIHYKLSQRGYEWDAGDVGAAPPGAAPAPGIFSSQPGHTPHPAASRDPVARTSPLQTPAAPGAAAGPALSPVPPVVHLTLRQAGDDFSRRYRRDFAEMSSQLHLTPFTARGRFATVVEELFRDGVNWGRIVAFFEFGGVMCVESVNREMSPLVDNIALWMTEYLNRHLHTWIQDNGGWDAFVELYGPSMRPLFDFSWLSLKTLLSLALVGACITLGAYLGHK
T1 sequence (P10415 whole entry): as above
Sequence of Mcl-1 protein (Q07820 whole entry, species assumed): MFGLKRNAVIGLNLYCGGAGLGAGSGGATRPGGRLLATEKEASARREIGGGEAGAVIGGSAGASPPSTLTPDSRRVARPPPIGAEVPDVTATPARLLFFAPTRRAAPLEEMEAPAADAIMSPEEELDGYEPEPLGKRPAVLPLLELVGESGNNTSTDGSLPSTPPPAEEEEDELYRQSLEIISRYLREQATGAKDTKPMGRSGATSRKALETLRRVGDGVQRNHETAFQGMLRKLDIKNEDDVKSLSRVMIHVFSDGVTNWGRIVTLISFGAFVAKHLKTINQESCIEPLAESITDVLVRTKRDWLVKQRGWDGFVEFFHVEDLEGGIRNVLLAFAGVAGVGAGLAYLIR
Sequence of Bcl-2 protein (P10415 whole entry, species assumed): as the sequence (P10415 whole entry) above
Sequence of His-tagged Mcl-1 protein (Q07820 whole entry): as the sequence (Q07820 whole entry, species assumed) above

Doses (concentration at which the compound interfered with the interaction between Bcl-2 and Bax) [1]	Time (time period after which the interaction between Bcl-2 and Bax was interfered) [1]	Ki (GST-Bcl-2 protein)	Ki (Mcl-1 protein)	Structure (SMILES)	IC50 (Bcl-2 protein)	IC50 (His-tagged Mcl-1 protein)	Doses (concentration at which the compound drove the BAX to shift towards the chondriosome) [2]	Time (time period after which BAX shifted towards the chondriosome) [2]	IC50 (MCF-7 cells)	IC50 [3]	concentration of the protein bands (semiquantitative, normalized), Bcl-2 (Bcl-2; 6 h)	concentration of the protein bands (semiquantitative, normalized), Bcl-2 (Bcl-2; 12 h)	concentration of the protein bands (semiquantitative, normalized), Bcl-2 (Bcl-2; 18 h)	concentration of the protein bands (semiquantitative, normalized), Bcl-2 (Bcl-2; 24 h)	concentration of the protein bands (semiquantitative, normalized), Mcl-1 (Mcl-1; 2 h)	concentration of the protein bands (semiquantitative, normalized), Mcl-1 (Mcl-1; 6 h)	melting point
0.5 µM	3 h	210 nM	56 nM	CC(C)Cc1ccc(Oc2ccc3c4c(cccc24)C2=C(C#N)C(=O)N=C23)cc1 [Compound 16, 4-(4-Isobutyl-phenoxy)-8-oxo-8H-acenaphtho[1,2-b]pyrrole-9-carbonitrile]	–	–	4.0 µM	3 h	8500 nM	> 50000 nM	–	–	–	–	–	–	–
0.3 µM	3 h	23 nM	85 nM	CC(C)Cc1ccc(Sc2ccc3c4c(cccc24)C2=C(C#N)C(=O)N=C23)cc1 [Compound 19, 4-(4-Isobutyl-phenylsulfanyl)-8-oxo-8H-acenaphtho[1,2-b]pyrrole-9-carbonitrile]	–	–	3.0 µM	3 h	2200 nM	> 50000 nM	–	–	–	–	–	–	–

Continued, compound first:

Structure (SMILES)	Doses (concentration at which the compound interfered with the interaction between Bcl-2 and Bax) [1]	Time (time period after which the interaction between Bcl-2 and Bax was interfered) [1]	Ki (GST-Bcl-2 protein)	Ki (Mcl-1 protein)	IC50 (Bcl-2 protein)	IC50 (His-tagged Mcl-1 protein)	Doses (concentration at which the compound drove the BAX to shift towards the chondriosome) [2]	Time (time period after which BAX shifted towards the chondriosome) [2]	IC50 (MCF-7 cells)	IC50 [3]	concentration of the protein bands (semiquantitative, normalized), Bcl-2 (Bcl-2; 6 h)	concentration of the protein bands (semiquantitative, normalized), Bcl-2 (Bcl-2; 12 h)	concentration of the protein bands (semiquantitative, normalized), Bcl-2 (Bcl-2; 18 h)	concentration of the protein bands (semiquantitative, normalized), Bcl-2 (Bcl-2; 24 h)	concentration of the protein bands (semiquantitative, normalized), Mcl-1 (Mcl-1; 2 h)	concentration of the protein bands (semiquantitative, normalized), Mcl-1 (Mcl-1; 6 h)	melting point
CC(C)c1ccc(Oc2ccc3c4c(cccc24)C2=NC(=O)C(NCCCc4ccccc4)=C23)cc1 [Compound 12, 3-(4-Isopropyl-phenoxy)-9-(3-phenyl-propylamino)-acenaphtho[1,2-b]pyrrol-8-one]	0.2 µM	1 h	–	–	9 nM	15 nM	0.3 µM	2 h	2900 nM	> 50000 nM	0.99	0.99	0.45	0.16	0.66	0.28	275 to 276 °C
CC(C)Cc1ccc(Oc2ccc3c4c(cccc24)C2=NC(=O)C(C#N)=C23)cc1 [Compound 15, 3-(4-Isobutyl-phenoxy)-8-oxo-8H-acenaphtho[1,2-b]pyrrole-9-carbonitrile]	0.5 µM	4 h	140 nM	12 nM	–	–	5.0 µM	3 h	7100 nM	> 50000 nM	0.99	0.99	0.39	0.12	0.69	0.42	–
N#CC1=C2C(=NC1=O)c1ccc(C(=O)c3ccc(CN)cc3)c3cccc2c13 [Compound 25, 4-(4-Aminomethyl-benzoyl)-8-oxo-8H-acenaphtho[1,2-b]pyrrole-9-carbonitrile]	0.6 µM	4 h	115 nM	135 nM	–	–	6.0 µM	4 h	6500 nM	> 50000 nM	–	–	–	–	–	–	–
CCCCCCOc1ccc2c3c(cccc13)C1=NC(=O)C(C(=O)O)=C12 [Compound 26, 3-Hexyloxy-8-oxo-8H-acenaphtho[1,2-b]pyrrole-9-carboxylic acid]	0.5 µM	5 h	105 nM	85 nM	–	–	5.0 µM	5 h	6200 nM	> 50000 nM	–	–	–	–	–	–	–
